From patent US20230125667A1, “NOVEL TDZD ANALOGS AS AGENTS THAT DELAY, PREVENT, OR REVERSE AGE-ASSOCIATED DISEASES AND AS ANTI-CANCER AND ANTILEUKEMIC AGENTS” (United States Government as represented by the Department …, priority 2020, published 2023)
Read-outs that look alike come from different tables or passages of the source.

Key:
[1] = test system: HCT-15; test: NCI-60 growth inhibition: HCT-15 (Colon Cancer); type: cell-based, human; conditions: Homo sapiens
[2] = test system: RPMI-8226; test: NCI-60 growth inhibition: RPMI-8226 (Leukemia); type: cell-based, human; conditions: Homo sapiens
[3] = test system: HL-60(TB); test: NCI-60 growth inhibition: HL-60(TB) (Leukemia); type: cell-based, human; conditions: Homo sapiens, HL-60
[4] = test system: UO-31; test: NCI-60 growth inhibition: UO-31 (Renal Cancer); type: cell-based, human; conditions: Homo sapiens
[5] = test system: HCT-116; test: NCI-60 growth inhibition: HCT-116 (Colon Cancer); conditions: Homo sapiens, HCT-116
[6] = test system: MCF7; test: NCI-60 growth inhibition: MCF7 (Breast Cancer); type: cell-based, human; conditions: Homo sapiens
[7] = test system: MDA-MB-231/ATCC; test: NCI-60 growth inhibition: MDA-MB-231/ATCC (Breast Cancer); type: cell-based, human; conditions: Homo sapiens
[8] = test system: MALME-3M; test: NCI-60 growth inhibition: MALME-3M (Melanoma); type: cell-based, human; conditions: Homo sapiens
[9] = test system: OVCAR-8; test: NCI-60 growth inhibition: OVCAR-8 (Ovarian Cancer); type: cell-based, human; conditions: Homo sapiens
[10] = test system: UACC-257; test: NCI-60 growth inhibition: UACC-257 (Melanoma); type: cell-based, human; conditions: Homo sapiens
[11] = test system: SK-MEL-2; test: NCI-60 growth inhibition: SK-MEL-2 (Melanoma); type: cell-based, human; conditions: Homo sapiens
[12] = test system: TK-10; test: NCI-60 growth inhibition: TK-10 (Renal Cancer); type: cell-based, human; conditions: Homo sapiens
[13] = test system: SW-620; test: NCI-60 growth inhibition: SW-620 (Colon Cancer); type: cell-based, human; conditions: Homo sapiens
[14] = test system: LOX IMVI; test: NCI-60 growth inhibition: LOX IMVI (Melanoma); type: cell-based, human; conditions: Homo sapiens
[15] = test system: DU-145; test: NCI-60 growth inhibition: DU-145 (Prostate Cancer); type: cell-based, human; conditions: Homo sapiens
[16] = test system: MV4-11 cell line (myelomonocytic leukemia); conditions: MV4-11 cells
[17] = test system: 786-0; test: NCI-60 growth inhibition: 786-0 (Renal Cancer); type: cell-based, human; conditions: Homo sapiens
[18] = test system: SK-MEL-5; test: NCI-60 growth inhibition: SK-MEL-5 (Melanoma); type: cell-based, human; conditions: Homo sapiens
[19] = test system: CCRF-CEM; test: NCI-60 growth inhibition: CCRF-CEM (Leukemia); type: cell-based, human; conditions: Homo sapiens
[20] = test system: PC-3; test: NCI-60 growth inhibition: PC-3 (Prostate Cancer); type: cell-based, human; conditions: Homo sapiens
[21] = test system: M14; test: NCI-60 growth inhibition: M14 (Melanoma); type: cell-based, human; conditions: Homo sapiens
[22] = test system: SN12C; test: NCI-60 growth inhibition: SN12C (Renal Cancer); type: cell-based, human; conditions: Homo sapiens
[23] = test system: A498; test: NCI-60 growth inhibition: A498 (Renal Cancer); type: cell-based, human; conditions: Homo sapiens
[24] = test system: RXF 393; test: NCI-60 growth inhibition: RXF 393 (Renal Cancer); type: cell-based, human; conditions: Homo sapiens
[25] = test system: EKVX; test: NCI-60 growth inhibition: EKVX (Non-Small-Cell Lung Cancer); type: cell-based, human; conditions: Homo sapiens
[26] = test system: NCI-H460; test: NCI-60 growth inhibition: NCI-H460 (Non-Small-Cell Lung Cancer); type: cell-based, human; conditions: Homo sapiens
[27] = test system: SK-MEL-28; test: NCI-60 growth inhibition: SK-MEL-28 (Melanoma); type: cell-based, human; conditions: Homo sapiens
[28] = test system: MOLT-4; test: NCI-60 growth inhibition: MOLT-4 (Leukemia); type: cell-based, human; conditions: Homo sapiens
[29] = test system: OVCAR-5; test: NCI-60 growth inhibition: OVCAR-5 (Ovarian Cancer); type: cell-based, human; conditions: Homo sapiens
[30] = test system: BT-549; test: NCI-60 growth inhibition: BT-549 (Breast Cancer); type: cell-based, human; conditions: Homo sapiens
[31] = test system: T-47D; test: NCI-60 growth inhibition: T-47D (Breast Cancer); type: cell-based, human; conditions: Homo sapiens, T47D
[32] = test system: HS 578T; test: NCI-60 growth inhibition: HS 578T (Breast Cancer); type: cell-based, human; conditions: Homo sapiens
[33] = test system: MDA-MB-468; test: NCI-60 growth inhibition: MDA-MB-468 (Breast Cancer); type: cell-based, human; conditions: Homo sapiens; MDA-MB-468 (Breast Cancer); read-out: GI50
[34] = test system: NCI-H522; test: NCI-60 growth inhibition: NCI-H522 (Non-Small-Cell Lung Cancer); conditions: Homo sapiens, NCI-H522
[35] = test system: SNB-19; test: NCI-60 growth inhibition: SNB-19 (CNS Cancer); type: cell-based, human; conditions: Homo sapiens
[36] = test system: HT29; test: NCI-60 growth inhibition: HT29 (Colon Cancer); type: cell-based, human; conditions: Homo sapiens, HT-29
[37] = test system: COLO 205; test: NCI-60 growth inhibition: COLO 205 (Colon Cancer); type: cell-based, human; conditions: Homo sapiens
[38] = test system: human leukemia cell lines; test: NCI-60 growth inhibition, leukemia cell lines
[39] = test system: NCI-H23; test: NCI-60 growth inhibition: NCI-H23 (Non-Small-Cell Lung Cancer); type: cell-based, human; conditions: Homo sapiens
[40] = test system: CAKI-1; test: NCI-60 growth inhibition: CAKI-1 (Renal Cancer); type: cell-based, human; conditions: Homo sapiens
[41] = test system: U251; test: NCI-60 growth inhibition: U251 (CNS Cancer); type: cell-based, human; conditions: Homo sapiens, U-251
[42] = test system: SR; test: NCI-60 growth inhibition: SR (Leukemia); type: cell-based, human; conditions: Homo sapiens
[43] = test system: UACC-62; test: NCI-60 growth inhibition: UACC-62 (Melanoma); type: cell-based, human; conditions: Homo sapiens
[44] = test system: HOP-92; test: NCI-60 growth inhibition: HOP-92 (Non-Small-Cell Lung Cancer); type: cell-based, human; conditions: Homo sapiens
[45] = test system: SF-268; test: NCI-60 growth inhibition: SF-268 (CNS Cancer); type: cell-based, human; conditions: Homo sapiens
[46] = test system: OVCAR-3; test: NCI-60 growth inhibition: OVCAR-3 (Ovarian Cancer); type: cell-based, human; conditions: Homo sapiens
[47] = test system: SF-539; test: NCI-60 growth inhibition: SF-539 (CNS Cancer); type: cell-based, human; conditions: Homo sapiens
[48] = test system: IGROV1; test: NCI-60 growth inhibition: IGROV1 (Ovarian Cancer); type: cell-based, human; conditions: Homo sapiens, IGROV-1
[49] = test system: OVCAR-4; test: NCI-60 growth inhibition: OVCAR-4 (Ovarian Cancer); type: cell-based, human; conditions: Homo sapiens
[50] = test system: MDA-MB-435; test: NCI-60 growth inhibition: MDA-MB-435 (Melanoma); type: cell-based, human; conditions: Homo sapiens
[51] = test system: ACHN; test: NCI-60 growth inhibition: ACHN (Renal Cancer); type: cell-based, human; conditions: Homo sapiens
[52] = test system: K-562; test: NCI-60 growth inhibition: K-562 (Leukemia); type: cell-based, human; conditions: Homo sapiens, K562
[53] = test system: SH-SY5Y-APPSw cells; test: Thioflavin-T staining of amyloid-like aggregates in SH-SY5Y-APPSw cells; type: cell-based, human; conditions: neuronal cells (FIG. 9)
Procedure: Several TDZD-conjugated drugs (putative GSK-3 inhibitors) were evaluated for their ability to reduce accumulation of protein aggregates, and for protection against aggregation-associated end-points in the following model systems: (i.) SH-SY5Y-APPSw, a neuroblastoma cell line expressing the Swedish mutation of Amyloid Precursor Protein (APPSw), and thus predisposed to form β-amyloid deposits; (ii.) C. elegans strain CL4176, a model of Alzheimer-like amyloidopathy that can be induced to express human Aβ1-42 in muscle, or may express it at a lower level without induction; (iii.) C. elegans strain AM141, a model of Huntington-like polyglutamine aggregation that constitutively expresses Q40::YFP (a tract of 40 glutamines fused in-frame to yellow fluorescent protein) in muscle cells and forms aggregates progressively with adult aging. The TDZD analog PNR-962 (a putative GSK-3 inhibitor) and other related compounds (not shown) were protective in all aggregation assays.
First, the effects of TDZD analogues were tested on the human neuroblastoma cell line SH-SY5Y-APPSw, a model of Alzheimer-like amyloid aggregation expressing the “Sw” mutant form of Amyloid Precursor Protein, APP. These drugs all produced significant reductions in amyloid-like aggregates, by 30-50% as quantified by thioflavin-T staining intensity (data for PNR-962 are shown in FIG. 4). Modified TDZD-8 analogues PNR-962 and BSK-179 are more anti-aggregative than TDZD-8, lowering total amyloid-staining intensity by a further 14% (data not shown).
Following previously described experimental procedures (Liu, et al. (2005). S100B-induced microglial and neuronal IL-1 expression is mediated by cell type-specific transcription factors. Journal of Neurochemistry. 92(3): 546-553), SH-SY5Y-APPSw neuronal cells expressing an aggregation-prone double mutant of amyloid precursor protein (APPSw) were cultured in DMEM plus 10% (v/v) fetal bovine serum (FBS) at 37° C. Cells were suspended in trypsin/EDTA and rinsed in PBS prior to re-plating or harvesting. […] Human neuroblastoma cells were treated with PNR962, either simultaneous with sAPPα or beginning 1 h prior to sAPPα addition (pre-treatment) in order to ascertain the protective benefits of PNR962 on protein aggregation in human neuroblastoma cell lines. A similar experimental procedure was followed to examine the effect of treatment with these analogs on non-neuronal human cells, exposing human embryonic kidney cells (HEK) that express tau-like aggregates (found in AD-associated diseases) to 0.001, 0.01, and 1-μM doses of TDZD-8 and its analogues.
To observe the protective effects of the novel TDZD analogs on protein aggregation in SY5Y-APPSw cells, using DMEM medium containing 10% fetal calf serum in […], cells were cultured at 37′C for 26 hrs allowing cells to approximately double in number. After 48 h of cell incubation in the presence of specified concentrations of drug or vehicle, cells were fixed 15 min in formaldehyde (4% v/v), washed, and stained 20 min at ˜22° C. in a dark container with 0.1% w/v Thioflavin T mixed with DAPI (1 μg/ml; Life Technologies, Grand Island, N.Y., USA). […] The intensity of aggregate/thioflavin-T fluorescence per field was quantified via an Image J plug-in developed in-house, and normalized to the number of DAPI^+ nuclei counted per field, to obtain an average intensity of aggregates per cell for each treatment.

[54] = Ibuprofen-TDZD analogs (Table 3)

C=C1C(=O)O[C@H]2[C@H]1CC/C(COC(=O)NCc1ccc(Cn3c(=O)sn(CCCI)c3=O)cc1)=C\CC[C@@]1(C)O[C@@H]21 [BSK-259]
GI50 [1]: 1.89 µM
GI50 [2]: 0.9 µM
GI50 [3]: 0.3 µM
GI50 [4]: 1.52 µM
GI50 [5]: 1.05 µM
GI50 [6]: 1.41 µM
GI50 [7]: 1.75 µM
GI50 [8]: 1.39 µM
GI50 [9]: 3.04 µM
GI50 [10]: 1.79 µM
GI50 [11]: 2.42 µM
GI50 [12]: 1.71 µM
GI50 [13]: 1.4 µM
GI50 [14]: 1.4 µM
GI50 [15]: 1.73 µM
fold more cytotoxic than PTL [16]: 273 fold
fold more cytotoxic than TDZD-8 [16]: 329 fold
LD50, 7AAD (μM) 24 h ([16]; MMB-TDZD analogs (Table 2)): 0.01 µM
LD50, Alamar blue (μM) 24 h ([16]; MMB-TDZD analogs (Table 2)): 0.30 µM
LD50, YOPRO (μM) 24 h ([16]; MMB-TDZD analogs (Table 2)): 0.01 µM
LD50 ([16]; values in text): 10 nM
GI50 [17]: 1.68 µM
GI50 [18]: 1.91 µM
GI50 [19]: 0.31 µM
GI50 [20]: 1.94 µM
GI50 [21]: 1.74 µM
GI50 [22]: 1.57 µM
GI50 [23]: 4.85 µM
GI50 [24]: 1.52 µM
GI50 [25]: 2.09 µM
GI50 [26]: 3.2 µM
GI50 [27]: 1.92 µM
GI50 [28]: 0.29 µM
GI50 [29]: 1.85 µM
GI50 [30]: 1.38 µM
GI50 [31]: 1.79 µM
GI50 [32]: 3.17 µM
GI50 [33]: 1.54 µM
GI50 [34]: 1.07 µM
GI50 [35]: 3.12 µM
GI50 [36]: 1.74 µM
GI50 [37]: 1.95 µM
GI50 ([38]; Homo sapiens): 0.28 to 0.9 µM
potency against leukemia cell lines (GI50 <1.0) ([38]; NCI panel): high potency against all 6 leukemia cell lines
GI50 [39]: 2.11 µM
GI50 [40]: 1.7 µM
GI50 [41]: 1.75 µM
GI50 [42]: 0.28 µM
GI50 [43]: 1.41 µM
GI50 [44]: 1.22 µM
GI50 [45]: 2.54 µM
GI50 [46]: 1.19 µM
GI50 [47]: 1.71 µM
GI50 [48]: 1.75 µM
GI50 [49]: 1.46 µM
GI50 [50]: 1.68 µM
GI50 [51]: 1.7 µM
GI50 [52]: 0.34 µM

CC(C)Cc1ccc(C(C)C(=O)NCc2ccc(Cn3c(=O)sn(CCCl)c3=O)cc2)cc1 (centres unmarked) [BSK-137]
LD50, 7AAD (μM) 24 h [16, 54]: 3.39 µM
LD50, Alamar blue (μM) 24 h [16, 54]: 7.00 µM
LD50, YOPRO (μM) 24 h [16, 54]: 3.28 µM
reduction of aggregate intensity (Thioflavin-T staining) [53]: 34%
